We go through 1 sequence from PMC4670726, “Systematic discovery of linear binding motifs targeting an ancient protein interaction surface on MAP kinases” (Molecular Systems Biology, 2015).

The target in assay [1] is T1, ERK2 (Homo sapiens, UniProt P28482).
T1 construct: hexa-histidine; made in house; host or cells: E. coli (Rosetta pLysS)
The assay can be described thus: Fluorescence polarization (FP) competitive protein-peptide binding assay, ERK2. The settings on record: FP competition titration of unlabeled synthetic peptide against 50 nM fluorescently labeled pepRSK1, MAPK at ~60–80% complex formation, 384-well, triplicates, average FP signal fitted; limit of quantitation ~100 μM. The protocol:
(§1) In addition to confirming binding in the MAPK‐docking groove, the dissociation constant (Kd) of unlabeled test peptides could also be calculated.
(§2) Dashes indicate cases where the curves could not be fitted (the Kd is above the limit of quantitation of this assay, approximately ~100 μM). Peptides are grouped in two clusters, the first being the strong JNK1 binders (frequently with little or no ERK2/p38α‐binding ability). The second group (below the magenta line) contains peptides with strong ERK2‐ and p38α‐binding capacity (but often little or no affinity toward JNK1). […] Gab3+ is the ortholog of a peptide from Gab1 which was tested as positive in the dot‐blot experiments. The two Gab3 motifs are related neither by structure nor by evolutionary origin. […]
(§3) For fluorescence polarization (FP)‐based binding affinity measurements, known MAPK‐docking groove‐binding peptides were N‐terminally labeled with carboxyfluorescein or carboxytetramethylrhodamine (for ERK2, pepRSK1: […]; for p38α, pepMK2: […] or pepMEF2A: […]; for JNK1, pep JIP3: […]). […] Subsequently, increasing amounts of chemically synthesized test peptides were added, and the FP signal was measured with a Synergy H4 (BioTek Instruments) plate reader in 384‐well plates. The Ki for each unlabeled peptide was determined by fitting the data to a competition binding equation. […]
(Polarisation of emitted light reports the rotation of a fluorescent probe.)

The target in assay [2] is T2, JNK1 (Homo sapiens, UniProt P45983).
T2 construct: hexa-histidine; made in house; host or cells: E. coli (Rosetta pLysS)
The assay can be described thus: Fluorescence polarization (FP) competitive protein-peptide binding assay, JNK1. The settings on record: FP competition titration of unlabeled synthetic peptide against 50 nM fluorescently labeled pep JIP3, MAPK at ~60–80% complex formation, 384-well, triplicates, average FP signal fitted; limit of quantitation ~100 μM. The protocol: as §1, §2, §3

In assay [3] the target is T3, p38α (Homo sapiens, UniProt Q16539).
T3 construct: hexa-histidine; made in house; host or cells: E. coli (Rosetta pLysS)
The assay can be described thus: Fluorescence polarization (FP) competitive protein-peptide binding assay, p38α. The settings on record: FP competition titration of unlabeled synthetic peptide against 50 nM fluorescently labeled pepMK2 or pepMEF2A, MAPK at ~60–80% complex formation, 384-well, triplicates, average FP signal fitted; limit of quantitation ~100 μM. The protocol: as §1, §2, §3

Ends that are not written are not given here.

T2 sequence (P45983 whole entry): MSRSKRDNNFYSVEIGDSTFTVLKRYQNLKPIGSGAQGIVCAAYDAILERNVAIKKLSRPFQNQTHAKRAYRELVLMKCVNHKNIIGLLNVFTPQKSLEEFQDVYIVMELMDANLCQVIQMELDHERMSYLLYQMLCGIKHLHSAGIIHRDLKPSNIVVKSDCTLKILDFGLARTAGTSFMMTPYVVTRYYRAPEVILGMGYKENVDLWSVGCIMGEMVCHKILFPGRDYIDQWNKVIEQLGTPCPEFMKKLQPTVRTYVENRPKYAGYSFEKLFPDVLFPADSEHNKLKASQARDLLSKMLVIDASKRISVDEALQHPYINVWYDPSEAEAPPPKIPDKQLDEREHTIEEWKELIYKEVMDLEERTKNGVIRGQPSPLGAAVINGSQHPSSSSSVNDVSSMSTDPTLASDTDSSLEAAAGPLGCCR
T3 sequence (Q16539 whole entry): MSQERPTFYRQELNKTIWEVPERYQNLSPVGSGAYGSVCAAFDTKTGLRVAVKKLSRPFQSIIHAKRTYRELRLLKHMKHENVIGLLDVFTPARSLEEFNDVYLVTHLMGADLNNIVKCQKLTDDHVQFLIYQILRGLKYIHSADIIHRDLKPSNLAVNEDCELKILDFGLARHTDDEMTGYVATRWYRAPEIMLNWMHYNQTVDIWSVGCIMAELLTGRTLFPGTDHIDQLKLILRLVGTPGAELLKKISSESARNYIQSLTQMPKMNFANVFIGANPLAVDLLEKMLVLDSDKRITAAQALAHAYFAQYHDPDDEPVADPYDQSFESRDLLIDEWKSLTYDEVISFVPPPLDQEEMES
T1 sequence (P28482 whole entry): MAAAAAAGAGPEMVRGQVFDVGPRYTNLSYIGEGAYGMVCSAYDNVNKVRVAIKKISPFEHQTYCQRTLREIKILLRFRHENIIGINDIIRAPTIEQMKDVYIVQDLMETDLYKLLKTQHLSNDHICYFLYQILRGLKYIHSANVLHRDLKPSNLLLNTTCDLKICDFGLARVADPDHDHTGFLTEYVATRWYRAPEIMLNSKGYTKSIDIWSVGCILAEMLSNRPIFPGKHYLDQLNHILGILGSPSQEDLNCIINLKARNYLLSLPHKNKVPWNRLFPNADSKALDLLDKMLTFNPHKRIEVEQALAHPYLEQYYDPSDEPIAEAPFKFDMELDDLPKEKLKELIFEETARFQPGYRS

As to KPQRKSRPPPLDLRNLS [GAB3+], the Kd – broadly, the concentration at which binding is half-saturated – in assay [1] was 0.7 µM; in assay [2], 13.2 µM; in assay [3], 2 µM.
